Test results taken from US9403843B2, “Cysteine protease inhibitors and uses thereof” (The Trustees of Columbia University in the City of New York, priority 2012, dated 2016).
pIC50, pKi: −log10 of the molar value. Like-named read-outs stand apart in the source and are kept apart here.

Legend:
[1] = test system: Aβ-induced LTP impairment; experiment: LTP rescue test; details: assessed at 650 nM
Method: Residual levels of potentiation were averaged during the last 5 min of LTP.

[2] = target: T1, full-length human Cal1 (Homo sapiens (Human), UniProt P07384); experiment: Calpain inhibition FRET assay; assay type: biochemical
Method: Calpain activity was measured using full-length human Cal1 in the presence of a FRET substrate. IC50 values were approximated by co-incubation of varying concentrations of the appropriate inhibitor (10, 100, 500, 1000 nM) in the presence of the FRET substrate (DABCYL)TPLK-SPPSPR-(EDANS) (SEQ ID NO: 5) and activation buffer. […] A peptide inhibitor, Z-LLY-FMK (SEQ ID NO: 6), was used as a positive control.
The Calbiochem InnoZyme activity kit was used for measuring the inhibition effect inhibitors on human erythrocyte calpain 1 activity. […] 20 μM of the FRET substrate, 10 nM of native Cal1, and 20 μM TCEP (reducing agent) were added to the reaction mixture containing assay buffer (Tris [10 mM], NaCl [100 mM], pH 7.4). Cal1 was activated by the addition of 10 μM calcium. Cleavage of the scissile bond amide bond, K-S, releases the fluorophore (EDANS) from the internal quenching molecule (DABCYL), resulting in an increase in fluorescence measured at 320 nm excitation and 480 nm emission wave lengths for 30 min. Each inhibitor was added to the reaction mixture at varying concentrations (10 nM, 100 nM, 1 μM, and 10 μM) to detect inhibition of Cal1 and reduction in fluorescence was measured by 96 well-plate reader. Approximate IC50 values of each compound were generated using linear regression within Graphpad Prism Software.

[3] = test system: APP/PS1 mice; experiment: Behavioral rescue assays (contextual fear memory, 2-day RAWM reference memory); assay type: in vivo; details: for memory impairment: 7 month old APP/PS1 mice, chronic administration
Source text: APP/PS1-vehicle: n=15; APP/PS1-67: n=6; APP/PS1-30a: n=10; WT-vehicle: n=15; WT-67=5; WT-30a: n=8, APP/PS1-33: n=11; WT-33: n=8, APP/PS1-50: n=10; WT-50: n=8. P<0.05 in all transgenic groups treated with compound compared to their respective vehicle-treated transgenics.
APP/PS1-vehicle: n=17; APP/PS1-67: n=9; APP/PS1-30a: n=10; WT-vehicle: n=18; WT-67=9; WT-30a: n=9, APP/PS1-33: n=10; WT-33: n=9, APP/PS1-50: n=11; WT-50: n=9.
The ability of compounds to rescue the defects in associative and reference memory in 3 month old APP/PS1 animals was assessed. Capability of ameliorating the defects in contextual fear memory was tested via i.p. administration (FIG. 12). In the 2-day RAWM test, daily injections of the 67, 30a, 33 and 50 from the 2nd month of age were beneficial against the loss of contextual fear memory and reference memory.
Impact of chronic treatment on against memory loss in older APP/PS1 mice (7 months of age) with a more severe plaque load was also investigated. Compounds 67, 33 and 50 were beneficial against memory impairment following chronic administration (FIG. 13).
The ability of a prodrug to rescue the defects in associative and reference memory in 3 month old APP/PS1 animals was assessed. […] Thus, the esterification seems to improve PK but it spoils PD parameters. Compound 89 ameliorates both LTP and memory in 3 month old APP/PS1 mice (FIG. 15). Daily treatment with 89 from the age of 2 months until 3 months ameliorated the defect in LTP (A) contextual fear memory (B) and reference memory (C) in APP/PS1 mice. n=10 for all groups. P<0.05 in transgenics treated with compound compared to their respective vehicle-treated transgenics.

[4] = target: T1, full-length human Cal1; experiment: Calpain inhibition FRET assay; assay type: biochemical; details: Table 3, 20 min incubation, FRET substrate
[5] = Acute and chronic toxicity, maximum tolerated dose; assay type: in vivo; details: mice; for MTD: mouse, in vivo, no malaise or death
Source text: For evaluation of acute and chronic toxicity we measured the maximum tolerated dose (MTD) in mice for 30a, 33 and 50.

[6] = Plasma pharmacokinetics after i.p. administration; assay type: in vivo; details: ICR mice; for time of peak plasma concentration: i.p., 30a 7.57, 33 7.86, 50 7.83 mg/kg; for half-life / bioavailability: mouse, ip, plasma; for bioavailability: after i.p. administration, read-out: absolute bioavailability
Method: Plasma concentrations of 30a, 33 and 50 were determined by LC-MS/MS after i.p. administration to ICR mice. The plasma concentrations at each sampling time are shown on FIG. 10. […] Indeed, following i.p. administration of 30a (7.57 mg/kg), 33 (7.86 mg/kg) and 50 (7.83 mg/kg), the peak plasma concentration occurred at 0.25, 0.5 and 0.125 h after dosing, respectively. […] The respective half-lives were ˜0.6 hrs, ˜1.1 hrs and ˜0.6 hrs.

[7] = test system: calpain-generated spectrin fragments; experiment: Spectrin proteolytic degradation products in hippocampi, western blot; assay type: in vivo; details: for prevention of spectrin cleavage by calpains in hippocampi: i.p. treatment for 12 days, doses as for PK
Method: Studies were performed to determine capability of lowering levels of spectrin proteolytic degradation products in hippocampi from adult animals. Using western blot analysis, prevention of calpain-generated spectrin fragments was checked following i.p. treatment for 12 days with 30a, 33 and 50 at the same concentrations used for PK assessment. The array of vehicle samples was obtained by loading samples with 5, 10, 15, and 20 μg total protein/lane. Samples from compound treated animals were loaded at 15 μg/lane.

[8] = target: Full length porcine calpain (Sus scrofa (Pig), UniProt P35750); experiment: Calpain inhibition kinetics studies (Suc-LLVY-AMC substrate); assay type: biochemical
Source text: (§1) Papain is representative of a family of typically lysosomal or secreted cysteine proteases, including the human cathepsins (B, C, F, H, K, L1-2, O, S, W, Z). […] Several methods have been reported in the literature for detailed kinetic analysis of the irreversible inhibition of cysteine proteases, including Cal1. […] (SEQ ID NO: 8). Using this substrate, kinetic parameters were derived using the method of Davies and co-workers, whereby “progress curves” were initially obtained measuring product formation as a function of time and fitted to y=P∞*(1−e^(−k*x)) (FIG. 7) (Cuerrier, D. et al., J Biol Chem 2007, 282, 9600-11; herein incorporated by reference in its entirety). […] Kinetic parameters (ki, KI, ki/KI) were obtained from double reciprocal plots (FIG. 7).
(§2) Full length porcine calpain (156 nM), or papain (236 pM) was added to a solution of 100 mM NaCl, 50 mM HEPES, pH 7.6, 1 mM TCEP, 30 μM Suc-LLVY-AMC (SEQ ID NO: 8) substrate, and inhibitor (0.5 to 50 μM). Calpain reactions also contained CaCl2 (1 mM and 100 mM for porcine and rat respectively). Both substrate and inhibitors were dissolved in acetonitrile/DMSO (1:1) with the exception of E-64, dissolved in water. Organic solvent remained <2% in all reactions, and most often <1%. Reactions were carried out in microtiter 96-well plates, with 150 μL per well, 30° C., and product formation was monitored over time by fluorescence (Ex/Em 346/444 nm, with 420 nm cutoff filter). Kinetic values of kobs were determined via non-linear regression using one-phase association analysis and linear plots of 1/kobs vs. 1/[I] provided kinetic constants ki and KI.

[9] = target: papain (Carica papaya (Papaya), UniProt P00784); experiment: biochemical; assay type: biochemical
Source text: as §1, §2

[10] = test system: Cal1cat vs CathB; experiment: Competition assay for Cal1 vs CathB using the biotinylated epoxide probe; assay type: binding, rat
Method: Anti-biotin western blotting of Cal1cat (Lane 6) or CathB (Lane 7) after incubation with 27 show the expected immunoreactivity of the covalently modified proteins. […] Densitometric analysis, using means from triplicate immunoblots, was used to estimate the modification of each protein by 27 in the presence of inhibitors relative to control (Lane 1: ratio=1.0).
Cal1cat was used in place of the full length enzyme to avoid autocatalysis.
Cal1cat and CathB were pre-treated with inhibitors for 10 min, followed by a 20 min incubation with the biotinylated epoxide, 27, as illustrated in FIG. 4. […] A more quantitative estimate of selectivity was achieved by comparison of band intensities.
The appropriate inhibitor (5 μM) was pre-incubated in a mixture containing Cal1cat (2 μM), CathB (2 μM), TCEP (1 mM), and Ca^2+ (30 μM) for 10 min at 37° C. […] (5 μM) was then added and the mixture incubated an additional 20 min. The reaction was quenched with EDTA (10 μM) and samples were ran using 4-16% SDS PAGE gel, subsequently transferred to PVDF membrane and visualized by Pierce ECL (Enhanced chemiluminescent) western blotting substrate, intensity of each blot was calculated using densitometry software. Relative inhibition of each enzyme was calculated with respect to enzyme activity in the absence of inhibitor. Inhibitor preference to Cal1cat with respect to CathB, was calculated by dividing relative Cal1cat inhibition with relative CathB inhibition of that particular inhibitor.

[11] = test system: Cal I; experiment: Relative selectivity for Cal I (E64 = 1.0), Table 2; assay type: biochemical; details: relative to E64 = 1.0
[12] = test system: primary neurons; experiment: LD50 in primary neurons; assay type: cell-based; details: YES = LD50 ≧ 50 μM in primary neurons
[13] = Table 2, approximate IC50, read-out: Cal I IC50
[14] = 3 month old APP/PS1 mice, 2-day RAWM, daily from 2 months
[15] = 3 month old APP/PS1 mice, daily i.p. from 2 months
[16] = APP/PS1 mice, daily treatment from 2 until 7 months
[17] = ki/Ki calculated relative to E-64
[18] = mean ± S.D. of triplicate experiments

Sequence of Full length porcine calpain (P35750 whole entry): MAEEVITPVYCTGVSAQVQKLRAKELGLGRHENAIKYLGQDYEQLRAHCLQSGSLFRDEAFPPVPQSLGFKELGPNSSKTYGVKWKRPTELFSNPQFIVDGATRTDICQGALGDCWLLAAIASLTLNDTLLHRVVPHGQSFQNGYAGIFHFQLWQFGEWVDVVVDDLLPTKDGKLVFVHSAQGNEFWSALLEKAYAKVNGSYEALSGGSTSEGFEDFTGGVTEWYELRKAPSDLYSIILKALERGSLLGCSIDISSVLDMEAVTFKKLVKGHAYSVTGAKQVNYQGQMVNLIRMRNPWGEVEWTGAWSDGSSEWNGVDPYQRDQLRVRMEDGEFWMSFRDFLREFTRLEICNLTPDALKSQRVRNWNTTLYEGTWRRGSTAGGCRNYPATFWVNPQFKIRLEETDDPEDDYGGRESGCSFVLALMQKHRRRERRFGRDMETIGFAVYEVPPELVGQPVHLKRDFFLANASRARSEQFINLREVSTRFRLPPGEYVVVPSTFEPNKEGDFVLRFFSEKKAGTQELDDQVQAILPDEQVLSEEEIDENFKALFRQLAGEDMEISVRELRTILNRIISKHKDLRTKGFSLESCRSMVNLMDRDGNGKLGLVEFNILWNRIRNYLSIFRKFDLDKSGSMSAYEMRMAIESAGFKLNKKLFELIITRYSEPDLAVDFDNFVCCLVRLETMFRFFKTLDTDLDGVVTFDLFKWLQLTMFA
Sequence of Full length porcine calpain (P04574 whole entry partner): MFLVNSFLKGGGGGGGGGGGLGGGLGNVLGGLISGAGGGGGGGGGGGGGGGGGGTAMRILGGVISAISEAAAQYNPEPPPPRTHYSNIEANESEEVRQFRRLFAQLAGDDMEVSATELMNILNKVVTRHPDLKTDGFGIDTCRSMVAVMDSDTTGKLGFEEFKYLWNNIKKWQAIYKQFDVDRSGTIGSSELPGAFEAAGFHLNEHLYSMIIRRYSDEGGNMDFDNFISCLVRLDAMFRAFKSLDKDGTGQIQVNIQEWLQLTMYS
Sequence of papain (P00784 134-345): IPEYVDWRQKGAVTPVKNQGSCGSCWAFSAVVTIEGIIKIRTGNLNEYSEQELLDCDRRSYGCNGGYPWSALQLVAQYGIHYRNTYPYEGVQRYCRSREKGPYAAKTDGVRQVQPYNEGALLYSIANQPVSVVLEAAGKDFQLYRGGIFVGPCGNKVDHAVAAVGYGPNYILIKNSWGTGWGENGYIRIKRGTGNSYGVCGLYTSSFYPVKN
T1 sequence (P07384 whole entry): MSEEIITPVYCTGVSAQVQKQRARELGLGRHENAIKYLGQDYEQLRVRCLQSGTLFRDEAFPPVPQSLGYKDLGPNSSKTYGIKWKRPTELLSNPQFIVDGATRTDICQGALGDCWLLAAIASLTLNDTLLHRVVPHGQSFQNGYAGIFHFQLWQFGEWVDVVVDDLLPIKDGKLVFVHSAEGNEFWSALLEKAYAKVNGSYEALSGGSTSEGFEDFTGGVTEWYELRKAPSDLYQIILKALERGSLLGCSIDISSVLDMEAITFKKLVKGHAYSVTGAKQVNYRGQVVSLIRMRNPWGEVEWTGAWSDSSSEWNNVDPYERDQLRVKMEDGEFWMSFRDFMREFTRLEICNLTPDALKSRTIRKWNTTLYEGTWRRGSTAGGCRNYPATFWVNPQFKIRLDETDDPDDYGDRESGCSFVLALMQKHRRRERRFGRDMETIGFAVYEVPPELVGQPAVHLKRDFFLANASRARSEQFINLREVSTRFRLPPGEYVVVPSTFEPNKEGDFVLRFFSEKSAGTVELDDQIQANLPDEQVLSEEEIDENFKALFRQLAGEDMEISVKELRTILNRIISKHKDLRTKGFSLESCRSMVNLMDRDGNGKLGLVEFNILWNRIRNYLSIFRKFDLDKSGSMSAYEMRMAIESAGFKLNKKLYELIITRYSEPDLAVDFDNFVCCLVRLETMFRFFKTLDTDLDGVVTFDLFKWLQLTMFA
T1 sequence (P04632 whole entry partner): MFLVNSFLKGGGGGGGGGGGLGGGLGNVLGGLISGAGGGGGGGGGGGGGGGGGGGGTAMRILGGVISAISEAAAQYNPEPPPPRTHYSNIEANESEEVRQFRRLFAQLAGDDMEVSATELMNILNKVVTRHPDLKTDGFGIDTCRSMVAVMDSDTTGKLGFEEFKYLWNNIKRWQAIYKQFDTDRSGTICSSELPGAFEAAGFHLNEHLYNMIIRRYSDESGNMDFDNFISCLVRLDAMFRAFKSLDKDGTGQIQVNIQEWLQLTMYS

SMILES	potency for LTP rescue compared with E64 [1]	pIC50 [2, 13]	reference memory [3, 14]	contextual fear memory [3, 15]	memory impairment [3]	contextual fear memory [3, 16]	reference memory [3, 16]	pIC50 [4]	MTD [5]	time of peak plasma concentration [6]	half-life [6]	bioavailability [6]	prevention of spectrin cleavage by calpains in hippocampi [7]	further results
CC(C)C[C@H](NC(=O)[C@H]1O[C@@H]1C(=O)O)C(=O)NCCCCNC(=O)CCCCC1CCSS1 (stereo partly drawn) [Compound 67]	surpassed E64	6.82	beneficial	beneficial	beneficial	ameliorated	not significant	–	–	–	–	–	–	–
Cn1cnc(C[C@H](NC(=O)[C@H]2O[C@@H]2C(=O)O)C(=O)Nc2nc(-c3ccc(F)cc3)cs2)c1 [Compound 36, (2S,3S)-3-((S)-1-(4-(4-fluorophenyl)thiazol-2-ylamino)-3-(1-methyl-1H-imidazol-4-yl)-1-oxopropan-2-ylcarbamoyl)oxirane-2-carboxylic acid]	did not surpass	–	–	–	–	–	–	6.65	–	–	–	–	–	–
O=C(NCc1cn(-c2ccc(F)cc2)nn1)[C@H](Cc1cscn1)NC(=O)[C@H]1O[C@@H]1C(=O)O [Compound 50, (2S,3S)-3-((S)-1-((1-(4-fluorophenyl)-1H-1,2,3-triazol-4-yl)methylamino)-1-oxo-3-(thiazol-4-yl)propan-2-ylcarbamoyl)oxirane-2-carboxylic acid]	surpassed E64	6.90	beneficial	beneficial	beneficial	ameliorated	ameliorated	7.00	200 mg/kg	0.125 h	~36 min	41.3%	dramatically reduced the amount of fragments	Cal1 inhibition (in words) [2]: potent activity; brain penetration ([7]; inferred from hippocampal spectrin cleavage): capable of effectively penetrating the brain; Relative Selectivity ([8]; Cal1 over papain, ki/Ki relative to E-64 set at 1.0): 9.3; pKi ([8]; apparent equilibrium constant, full length Cal1, read-out: K1 Calpain1): 5.54; ki Calpain1 ([8]; inhibition rate, full length Cal1): 0.10 s⁻¹; relative selectivity for inhibition of Cal1 over papain (in words) ([8]; ki/Ki as measure, compared with E-64): Cal1 selectivity; rel Calpain1 [8, 17]: 1.1; 10^−4 × ki/Ki Calpain1 [8, 18]: 3.31 ± 0.32; pKi ([9]; apparent equilibrium constant, read-out: K1 Papain): 4.72; ki Papain ([9]; inhibition rate): 12.7 s⁻¹; rel Papain [9, 17]: 0.12; 10^−5 × ki/Ki Papain [9, 18]: 6.62 ± 0.74
O=C(Nc1nc(-c2ccc(F)cc2)cs1)C(Cc1cnc[nH]1)NC(=O)[C@H]1O[C@@H]1C(=O)O (stereo partly drawn) [Compound 30a, (2S,3S)-3-(1-(4-(4-fluorophenyl)thiazol-2-ylamino)-3-(1H-imidazol-4-yl)-1-oxopropan-2-ylcarbamoyl)oxirane-2-carboxylic acid]	–	7.00	beneficial	beneficial	–	ameliorated	ameliorated	–	100 mg/kg	0.25 h	~36 min	80.4%	less efficient at preventing the spectrin cleavage	blocking of active site modification by probe 27 (western blot signal) ([10]; 10 min pre-treatment, then 20 min with 27): little change in the CathB signal; selectivity for Cal1cat (ratio of Cal1cat versus CathB band intensities) ([10]; ratio for probe 27 alone set as 1.0, inhibitor 5 μM): highest selectivity; chronic toxicity, histopathology ([5]; chronic treatment at MTD): nephrotoxicity was noticed; pIC50 ([2]; Cal1, values stated in text, read-out: IC50): ~7.00
CC(=O)NCCCCNC(=O)[C@H](CC(C)C)NC(=O)C1OC1c1ccccc1 (stereo partly drawn) [Compound 61]	–	~6.00	–	–	–	–	–	–	–	–	–	–	–	Relative selectivity for Cal I E64 = 1.0 [11]: 0.3; LD50 ≧ 50 μM primary neurons [12]: YES
